# Data reported in patent US5082838A, “Sulfur-containing fused pyrimidine derivatives, their production and use” (Takeda Chemical Industries, Ltd., priority 1989, dated 1992).
# Tests used:
# [1] = system: Feverescence of Rat Due to Lipopolvsaccharide (LPS); assay: Antipyretic activity in LPS-induced febrile rats; assay type: in vivo, Male JcL;SD rats; conditions: p.o.
# Description: Activity of Depressing Feverescence of Rat Due to Lipopolvsaccharide (LPS)
# Male JcL;SD rats 7 weeks old (body weight: about 250 g, Clea Japan) were used. Each group had 6 rats. The rats were reared in individual cages from the day before, and then the basal body temperature was measured in the rectums using a digital thermometer (Model D221-6, Takara Kogyo) 3 times at intervals of 1 hour. After the third measurement of the body temperature, the compounds shown in Table 6 were orally administered in a volume of 1 ml per 100 g of body weight. LPS (Escherichia coli 0111 B4, Difco) was administered from their tail veins in an amount of 0.2 ml per 100 g of body weight 1 hour after the administration of the compounds.
# The body temperature was measured from 3 to 5 hours after that at intervals of 1 hour. The antipyretic activity of the compounds was evaluated by the difference in body temperature between a control group and a compound-administered group. Statistical analysis was carried out by the Dunnett's test.
# NGF = assay: Promoting effects on synthesis and secretion of NGF in glia cells (C6 glioma), enzyme immuno assay; assay type: cell-based; conditions: 24 hours, read-out: Promoting Activity (%) of NGF synthesis and secretion (relative to control = 100); for activity at 30 µM: 3 × 10^-5 M; for activity at 3 µM: 3 × 10^-6 M
# Description: Promoting Effects of the Compounds on Synthesis and Secretion of NGF in Glia Cells
# A 48 well-plate was seeded with glia strains cells (C6 glioma) at a rate of 2.5×10^4 cells/well, which was cultivated in Dulbecco's modified eagle's medium (DMEM) containing 10% fetal calf serum. When the cells became confluent (2 to 3 days), each of the following compounds of the present invention was added thereto, and it was cultivated in serum free-DMEM for 24 hours. NGF secreted in the culture supernatant was assayed by enzyme immuno assay. An amount of NGF is shown in a relative value to 100, the value of control (without addition of the compound). The compounds were added in a solution of DMSO, at an amount of 1/100 (V/V) of a medium (V/V). In a control, DMSO alone was added.
# Interleukin 1 Production = assay: Inhibitory effects on interleukin 1 production stimulated by lipopolysaccharide in rat intraperitoneal macrophage (LAF assay); assay type: cell-based, Male Sprague-Dawley rats; conditions: LPS 50 ug/ml; for inhibition at 10 µM: 10^-5 Molar; for inhibition at 1 µM: 10^-6 Molar
# Description: Inhibitory Effects on Interleukin 1 Production Simulated by Lipopolysaccharide in the Rat Intraperitoneal Macrophage
# Male Sprague-Dawley rats (8 weeks old, body weight: 300 g, Clea Japan) were killed by exsanguination under etherization. 20 ml of a culture solution (RPMI-1640) was intraperitoneally administered to each rat, and the abdominal part thereof was massaged, followed by abdominal section to recover the culture solution. After centrifugation of the solution, the cell pellet obtained was resuspended in 4 ml of the culture solution, superposed on 5 ml of Ficoll-Paque solution (lymphocyte separation medium, Wako Junyaku, Japan), and centrifuged at 450 g at room temperature for 15 minutes. The cells located in the boundary between the Ficoll-Paque solution and the culture solution were collected and washed 3 times with the culture solution. The resulting cells were suspended in the culture solution again, which was used as a macrophage-suspended solution (3×10^5 cells/ml).
# Interleukin 1 was produced in the following manner. Macrophage (3×10^5 cells) in a 96-well microtiter plate was preincubated in a CO 2 incubator for 1 hour with each of the compounds shown in Table 5. Then, 50 ug/ml of lipopolysaccharide (Escherichia coli 0111 B4, Difco) was added thereto. After cultivation was further continued for 20 hours, the activity of interleukin 1 in the culture supernatant was measured by an LAF (lymphocyte activating factor) assay. Experiments were carried out in a triplicate manner.
# The LAF assay was conducted as the following. Thymocytes (1-1.5×10^6 cells) of C3H/HeJ mice were added to phytohemagglutinin (PHA) P (diluted 1/2000; Difico) and the macrophage culture solution diluted 1/10 or 1/30, and cultivated in a CO2 incubator. After 48 hours, ^3 H-thymidine of 0.5 uCi was added thereto and cultivation was further continued for 24 hours. Then, the amount of ^3 H-thymidine entrapped in the thymocytes was measured. The radioactivity entrapped in the thymocytes was taken as the amount of interleukin-1.
# We conducted this process partly modifying the method of R. C. Newton et al. [J. Leukocyte, Biology 39, 299-3111 (1986)].
# endothelin constriction = assay: Inhibitory effects on endothelin induced contraction in porcine coronary arteries (LAD rings); assay type: cell-based; conditions: Sus scrofa, endothelin 3×10^-9 M, read-out: Inhibition (%) of maximum contraction by endothelin; for inhibition at 10 µM: 10^-5 M; for inhibition at 1 µM: 10^-6 M
# Description: Inhibitory Effects of the Compounds on […] Induced Contraction in Porcine Coronary Arteries
# Ring preparation of porcine left arterior descending coronary arteries (LAD) were suspended in 20 ml baths containing Krebs-Henseleit solutions at 37° C. gassed with 97% O2 -3% CO2. Endothelin (3×10^-9 M) was added to the baths, and after the constriction reached the steady state, the compounds at concentrations of […] and 10^-5 M (Examples 45, 48 and 127) were added to the bath. Then, the relaxation activity was examined. The relaxation activity of the compounds was expressed as % inhibition from the maximum contraction by endothelin.
# [2] = system: Endothelin Induced Pressor and Depressor Responses; assay: Inhibitory effects on endothelin induced pressor and depressor responses in conscious beagle dogs; assay type: in vivo
# From the text: Inhibitory Effects on Endothelin Induced Pressor and Depressor Responses in Conscious Beagle Dogs
# Using 10 male beagles (12-14 kg, 8-10 months old), a polyethylene cannula (PEG-100) was inserted into each of the left femoral artery and vein of each beagle after pentobarbital anesthesia. The experiment was started from 3 to 7 days after the operation. The cannula was connected to a pressure transducer to measure the systemic blood pressure. The endothelin antagonistic activity of the compound obtained in Example 65 was examined, taking the depressor and pressor responses due to the intravenous administration of endothelin as its indication. […]
# [3] = system: Ischemic and Reperfused Rat Heart; assay: Depressing effect against evolution of infarct size in ischemic and reperfused rat heart; assay type: in vivo, Male Wistar rats; conditions: 100 mg/kg p.o. 2 hours before occlusion and 5 hours after reperfusion; n = 5; control 36.7 ± 1.4 (12); P < 0.01
# Description: Depressing Effect Against Evolution of Infarct Size in Ischemic and Reperfused Rat Heart
# Male Wistar rats were medianly dissected under pentobarbital anesthesia, and left anterior descending coronary artery was occluded at its origin for 1 hour, followed by resumption of Blood flowing. The chest was closed 30 to 60 minutes after the reperfusion, and the rates were kept under conscious state. After 24 hours, the rats were anesthetized again and the hearts were excised. The left ventricle of each heart was divided into six parts, and these divided parts were stained with 1% triphenyltetrazolium chloride solution at 37° C. for 15 minutes. Then, infarcted portions were weighed.
# The compound obtained in Example 127 was orally administered in a dose of 100 mg/kg as a gum arabic suspension 2 hours before the occlusion and 5 hours after the reperfusion.
# [4] = 1 mg/kg, i.v., 5 min after administration, n = 4
# [5] = 1 mg/kg, i.v., 1 hr after administration, n = 4
# [6] = 1 mg/kg, i.v., 2 hr after administration, n = 4
# [7] = 1 mg/kg, i.v., 4 hr after administration, n = 4
# [8] = 1 mg/kg, i.v., 6 hr after administration, n = 4
# [9] = 10 mg/kg, p.o., 1 hr after administration, n = 3
# [10] = 10 mg/kg, p.o., 2 hr after administration, n = 3
# [11] = 10 mg/kg, p.o., 4 hr after administration, n = 3
# [12] = 10 mg/kg, p.o., 8 hr after administration, n = 3
compound,measurement,setting,value
"9-Formyl-7-propyl-3,4-dihydro-2H,6H-pyrimido[6,1-b][1,3]thiazine-6,8(7H)-dione [Example 101]",Antipyretic Activity (difference in body temperature vs. control group),[1]; 100 mg/kg,-0.87 °C
"CCCn1c(=O)c(-c2ccccc2)c2n(c1=O)CCCS2 [Example 1, 9-Phenyl-7-propyl-3,4-dihydro-2H,6H-pyrimido[6,1-b][1,3] thiazine-6,8(7H)-dione]",activity at 30 µM,NGF,117 ± 34%
same,activity at 3 µM,NGF,168 ± 6%
CCn1c(=O)c(-c2ccccc2)c2n(c1=O)CCCS2 [Example 17],inhibition at 10 µM,Interleukin 1 Production,93%
CCCCn1c(=O)c(-c2ccccc2)c2n(c1=O)CCCS2 [Example 23],Antipyretic Activity (difference in body temperature vs. control group),[1]; 100 mg/kg,-0.72 °C
"O=c1c(-c2ccccc2)c2n(c(=O)n1Cc1ccccc1)CCCS2 [Example 36, 7-benzyl-9-phenyl-3,4-dihydro-2H,6H-pyrimido[6,1-b][1,3]thiazine-6,8(7H)-dione]",activity at 30 µM,NGF,102 ± 2%
same,activity at 3 µM,NGF,240 ± 16%
CCn1c(=O)c(-c2ccccc2)c2n(c1=O)CCC[S+]2[O-] (stereo not shown) [Example 43],inhibition at 10 µM,Interleukin 1 Production,52%
same,Antipyretic Activity (difference in body temperature vs. control group),[1]; 100 mg/kg,-0.70 °C
CCCCn1c(=O)c(-c2ccccc2)c2n(c1=O)CCC[S+]2[O-] (stereo not shown) [Example 45],inhibition at 10 µM,endothelin constriction,100%
same,inhibition at 1 µM,endothelin constriction,6.2%
same,inhibition at 10 µM,Interleukin 1 Production,75%
same,inhibition at 1 µM,Interleukin 1 Production,30%
CCCn1c(=O)c(-c2ccccc2)c2n(c1=O)CC[S+]2[O-] (stereo not shown) [Example 48],inhibition at 10 µM,endothelin constriction,86.6%
same,inhibition at 1 µM,endothelin constriction,24.6%
CCCCCn1c(=O)c(-c2ccccc2)c2n(c1=O)CCC[S+]2[O-] (stereo not shown) [Example 50],inhibition at 10 µM,Interleukin 1 Production,98%
same,inhibition at 1 µM,Interleukin 1 Production,58%
"CCCn1c(=O)c(-c2ccccc2)c2n(c1=O)CCCS2(=O)=O [Example 58, 1,1-Dioxo-9-phenyl-7-propyl-3,4-dihydro-2H,6H-pyrimido [6,1-b][1,3]thiazine-6,8(7H)-dione]",activity at 30 µM,NGF,140 ± 2%
same,activity at 3 µM,NGF,164 ± 25%
Cn1c(=O)c(-c2ccccc2)c2n(c1=O)CCS2(=O)=O [Example 59],inhibition at 10 µM,Interleukin 1 Production,89%
CCCn1c(=O)c(-c2ccccc2)c2n(c1=O)CCS2(=O)=O [Example 61],activity at 30 µM,NGF,109 ± 12%
same,activity at 3 µM,NGF,177 ± 8%
CCCCn1c(=O)c(-c2ccccc2)c2n(c1=O)CCS2(=O)=O [Example 62],inhibition at 10 µM,Interleukin 1 Production,96%
O=c1c(-c2ccccc2)c2n(c(=O)n1-c1ccccc1)CCS2(=O)=O [Example 63],inhibition at 10 µM,Interleukin 1 Production,98%
Cn1c(=O)c(-c2ccccc2)c2n(c1=O)CCCS2(=O)=O [Example 64],inhibition at 10 µM,Interleukin 1 Production,100%
same,inhibition at 1 µM,Interleukin 1 Production,60%
same,Antipyretic Activity (difference in body temperature vs. control group),[1]; 25 mg/kg,-0.68 °C
same,Antipyretic Activity (difference in body temperature vs. control group),[1]; 50 mg/kg,-0.82 °C
same,Antipyretic Activity (difference in body temperature vs. control group),[1]; 100 mg/kg,-1.13 °C
CCn1c(=O)c(-c2ccccc2)c2n(c1=O)CCCS2(=O)=O [Example 65],inhibition at 10 µM,Interleukin 1 Production,100%
same,inhibition at 1 µM,Interleukin 1 Production,40%
same,Antipyretic Activity (difference in body temperature vs. control group),[1]; 100 mg/kg,-0.95 °C
O=c1c(-c2ccccc2)c2n(c(=O)n1-c1ccccc1)CCCS2(=O)=O [Example 67],inhibition at 10 µM,Interleukin 1 Production,98%
same,inhibition at 1 µM,Interleukin 1 Production,10%
CCCC/C=C/c1c2n(c(=O)n(CCC)c1=O)CCS2 [Example 106],Antipyretic Activity (difference in body temperature vs. control group),[1]; 100 mg/kg,-0.53 °C
"CCCn1c(=O)c(-c2ccccc2)c2n(c1=O)CC=CS2 [Example 127, 9-Phenyl-7-propyl-4H,6H-pyrimido[6,1-b][1,3]thiazine6,8(7H)-dione]",inhibition at 10 µM,endothelin constriction,90%
same,inhibition at 1 µM,endothelin constriction,82.3%
same,% inhibition of Depressor Response,[2]; [4],86 ± 9%
same,% inhibition of Pressor Response,[2]; [4],100%
same,% inhibition of Depressor Response,[2]; [5],74 ± 11%
same,% inhibition of Pressor Response,[2]; [5],55 ± 7%
same,% inhibition of Depressor Response,[2]; [6],57 ± 10%
same,% inhibition of Pressor Response,[2]; [6],55 ± 7%
same,% inhibition of Depressor Response,[2]; [7],31 ± 13%
same,% inhibition of Pressor Response,[2]; [7],38 ± 15%
same,% inhibition of Depressor Response,[2]; [8],30 ± 8%
same,% inhibition of Pressor Response,[2]; [8],32 ± 10%
same,% inhibition of Depressor Response,[2]; [9],34 ± 9%
same,% inhibition of Pressor Response,[2]; [9],37 ± 10%
same,% inhibition of Depressor Response,[2]; [10],81 ± 10%
same,% inhibition of Pressor Response,[2]; [10],85 ± 10%
same,% inhibition of Depressor Response,[2]; [11],67 ± 12%
same,% inhibition of Pressor Response,[2]; [11],76 ± 12%
same,% inhibition of Depressor Response,[2]; [12],50 ± 0%
same,% inhibition of Pressor Response,[2]; [12],43 ± 4%
same,ratio of the weight of the infarcted region to the weight of the left ventricles,[3],26.8 ± 3.1%
"O=c1c(-c2ccccc2)c2n(c(=O)n1Cc1ccccc1)CC=CS2 [Example 129, 7-Benzyl-9-phenyl-4H,6H-pyrimido[6,1-b][1,3]thiazine-6,8(7H)-dione]",activity at 30 µM,NGF,117 ± 6%
same,activity at 3 µM,NGF,197 ± 9%
